{
  "source": "patent US10857185B2",
  "about": "“Compositions and methods for reprogramming non-neuronal cells into neuron-like cells” (Beihao Stem Cell and Regenerative Medicine Research …, priority 2015, dated 2020)",
  "key": {"CiNs": {"test_system": "CiNs", "assay": "Whole-cell patch-clamp recordings of CiNs", "assay_type": "cell-based, mouse", "settings": "CiNs after re-plating; data not shown", "method": "Primary cultures of neurons were prepared from postnatal day 1 wild-type C57 mice. Mice were decapitated, and their brains were removed in pre-cooled physiological saline. The hippocampus was dissected in pre-cooled HBSS (9.5 g/L Hanks' balanced salts, 4.2 mM NaHCO3, 10 mM HEPES, 12 mM MgSO4, 7 g/L glucose, 0.3 g/L bull serum albumin, and 0.5% penicillin/streptomycin, with the pH adjusted to 7.4 with NaOH). Tissues were digested with 5 ml 0.2% trypsin (Gibco, dissolved in digestion solution) for 2-3 min, and the digestion reaction was stopped with 1 mg/ml trypsin inhibitor (Sigma, dissolved in HBSS). The digestion solution contained (in mM) 4.2 NaHCO3, 25 HEPES, 137 NaCl, 5 KCl, and 7 Na2HPO4, and the pH was adjusted to 7.4 with NaOH. […]\nFor whole-cell patch-clamp recordings, the ACSF (artificial cerebrospinal fluid) extracellular solution contained (in mM) 141 NaCl, 2.5 KCl, 1.3 MgCl2, 2.4 CaCl2, 1.25 NaH2PO4 10 glucose and 10 HEPES (pH adjusted to 7.4 with NaOH), and the internal pipette solution contained (in mM) 140 potassium gluconate, 1 CaCl2, 10 EGTA, 2 MgCl2, 10 HEPES, and 5 Na2ATP (pH adjusted to 7.3 with KOH). […] Tetrodotoxin (TTX; 10 μM) dissolved in extracellular solution was applied with an ALA-VM4 valve manifold (Scientific Instruments), and washout from the iNs was assessed to determine whether the inward fast inactivating current was a sodium current. […]"}, "fibroblasts": {"test_system": "fibroblasts", "assay": "Gene expression (RT-qPCR) after removing each small molecule from the cocktail", "assay_type": "cell-based, mouse", "method": "Total RNA was extracted using the Qiagen RNeasy Plus mini kit and was reverse transcribed into cDNA with TransScript One-step gDNA Removal and cDNA Synthesis SuperMix (TransGen Biotech). Real-time PCR was performed using a 7300 Real-Time PCR system (Applied Biosystems) with Power SYBR Green PCR Master Mix (2×).\nGene expression was analyzed using the ΔΔCt method. All the results were normalized to β-actin expression, and the values of uninduced fibroblasts were set to 1. Two replicates were used to determine the error bars.\nNext, the roles of the small molecules in regulating these endogenous cell-fate-determining factors were determined."}, "mouse fibroblasts": {"test_system": "mouse fibroblasts", "assay": "Transgene-free chemical induction of mouse fibroblasts into neuron-like cells (immunostaining counts)", "assay_type": "cell-based", "method": "Secondary screening was performed to identify additional small molecules that facilitate neuronal reprogramming and maturation (shown schematically in FIG. 2A). In this screening, the effect of the additional small molecules was evaluated by observing neurite outgrowth. Desirable additional small molecules could induce the neurons with an improved neurite outgrowth as signs of enhanced reprogramming and maturation, ideally with highly complex morphologies. Improved neurite morphologies were evaluated in terms of enhanced neurite branches and neurite length. Further, characterization (e.g. TUJ1 immunostaining) was performed to confirm the observation. Fibroblasts were seeded into 12-well plates and each additional small molecule was added well by well into the culture medium containing the basic small-molecule cocktail (SM-cocktail+1 Screening), while SM-cocktail+DMSO was used as a negative control. […] TUJ1-positive cells with circular cell bodies and neurite outgrowth that is at least three-fold longer than the cell body were quantified. […] Cells were washed with PBS twice and then fixed with 4% paraformaldehyde for 20 min at room temperature. Afterward, the cells were washed with PBS twice and then blocked and permeabilized with 0.25% PBST (PBS plus 0.25% Triton X-100) and 3% donkey serum (DS) for 1 hour at 37° C. A PAP pen was used to outline the fields for staining. Diluted primary antibodies were added to the outlined fields, and the samples were incubated at 4° C. overnight. Next, the cells were washed three times with PBS and incubated in PBS plus 3% DS with diluted secondary antibodies for 1 hour at room temperature. The nuclei of the cells were stained with DAPI (Roche Molecular Biochemicals) if needed. […] The following secondary antibodies were used in this study: FITC and TRITC-conjugated secondary antibodies (Jackson ImmunoResearch) and Alexa Fluor 647-conjugated secondary antibodies (Life Technologies)."}, "[1]": {"settings": "I-BET151 added to FICS cocktail (FICS+1 screening)"}},
  "note": "“Also recorded” adds a separate entry of the source.",
  "data": [
    {"smiles": "NC(CCCP(=O)(O)O)C(=O)O", "note": "(stereo not shown) [AP5, 2-amino-5-phosphonovaleric acid]", "values": [
      {"measurement": "effect of receptor antagonists on EPSCs of CiNs", "setting": "CiNs", "value": "blocked"}
    ]},
    {"smiles": "N#Cc1cc2c(cc1[N+](=O)[O-])=NC(=O)C(=O)N=2", "note": "[CNQX, 6-cyano-7-nitroquinoxaline-2,3-dione]", "values": [
      {"measurement": "effect of receptor antagonists on EPSCs of CiNs", "setting": "CiNs", "value": "blocked"}
    ]},
    {"smiles": "COc1cc2c(cc1-c1c(C)noc1C)ncc1[nH]c(=O)n([C@H](C)c3ccccn3)c12", "note": "[I-BET151, 7-(3,5-dimethylisoxazol-4-yl)-8-methoxy-1-((R)-1-(pyridin-2-yl)ethyl)-1H-imidazo[4,5-c]quinolin-2(3H)-one]", "values": [
      {"measurement": "role in suppression of the endogenous fibroblast-fate-determining program", "setting": "fibroblasts", "value": "core small molecule to suppress the endogenous fibroblast-fate-determining program"},
      {"measurement": "TUJ1-positive cells yield", "setting": "mouse fibroblasts; [1]", "value": 90, "unit": "%"},
      {"measurement": "reprogramming rate and neurite outgrowth of the induced neurons", "setting": "mouse fibroblasts; [1]", "value": "dramatically enhanced"},
      {"measurement": "toxicity to cells being induced", "setting": "mouse fibroblasts; enhancing reprogramming with I-BET151", "value": "some toxicity"}
    ]},
    {"smiles": "O=C(NC1CC1)c1cc(-c2cccs2)on1", "note": "[ISX9, N-cyclopropyl-5-(2-thienyl)-3-isoxazolecarboxamide]", "values": [
      {"measurement": "role in activation of master neural / neuron-specific genes", "setting": "fibroblasts; 48 h", "value": "necessary for activation of multiple neuron-specific genes; also recorded: essential to induce the master neural genes"}
    ]},
    {"smiles": "NC(=O)c1ccc(-c2nc(-c3ccc4c(c3)OCO4)c(-c3ccccn3)[nH]2)cc1", "note": "[SB431542, 4-[4-(1,3-benzodioxol-5-yl)-5-(2-pyridinyl)-1H-imidazol-2-yl]benzamide]", "values": [
      {"measurement": "survival and neurite outgrowth of the induced neurons", "setting": "mouse fibroblasts; in FICSB cocktail", "value": "enhanced"},
      {"measurement": "need of the chemical for generating neurons", "setting": "mouse fibroblasts; withdrawing individual chemical from FICSB cocktail", "value": "dispensable for generating neurons"}
    ]},
    {"smiles": "C[C@@H](N)[C@H]1CC[C@H](C(=O)Nc2ccncc2)CC1.Cl.Cl", "note": "[Y2632, (+)-(R)-trans-4-(1-aminoethyl)-N-(4-pyridyl)cyclohexanecarboxamide dihydrochloride]", "values": [
      {"measurement": "survival rate and reprogramming", "setting": "mouse fibroblasts; treatment from Day 0 to about day 4 together with I-BET151-containing cocktail", "value": "enhanced the survival rate and reprogramming"}
    ]}
  ]
}
